Measurements from PubChem BioAssay AID1259407 (Chemical Carcinogenesis Research Information System (CCRIS), 2018).
Activity calls are given as the source filed them. No rule for the calls is given here.

Tested on: CCRIS mutagenicity, Ames/micronucleus/aberration tests
Assay: CCRIS mutagenicity studies
[1] = Test System: AMES SALMONELLA TYPHIMURIUM, Strain/Indicator: TA100, Metabolic Activation: NONE, Method: STANDARD PLATE
[2] = Test System: AMES SALMONELLA TYPHIMURIUM, Strain/Indicator: TA100, Metabolic Activation: RAT, LIVER, S-9, AROCLOR 1254, Method: STANDARD PLATE
[3] = Test System: AMES SALMONELLA TYPHIMURIUM, Strain/Indicator: TA98, Metabolic Activation: NONE, Method: PREINCUBATION
[4] = Test System: AMES SALMONELLA TYPHIMURIUM, Strain/Indicator: TA100, Metabolic Activation: NONE, Method: PREINCUBATION

Q: With `CCS(=O)(=O)CCn1c([N+](=O)[O-])cnc1C` as the molecule, how does the mutagenic call (Test System: AMES SALMONELLA TYPHIMURIUM, Strain/Indicator: TA98, Metabolic Activation: RAT, LIVER, S-9, AROCLOR 1254, Method: STANDARD PLATE) read?
A: inactive; negative

Q: What about the mutagenic call (Test System: AMES SALMONELLA TYPHIMURIUM, Strain/Indicator: TA100(1,8-DNP6), Metabolic Activation: NONE, Method: PREINCUBATION (AEROBIC)) of the same molecule?
A: active; positive

Q: What about the mutagenic call (Test System: AMES SALMONELLA TYPHIMURIUM, Strain/Indicator: TA100(NR), Metabolic Activation: NONE, Method: PREINCUBATION (AEROBIC)) of the same molecule?
A: active; positive

Q: What about the mutagenic call (Test System: AMES SALMONELLA TYPHIMURIUM, Strain/Indicator: TA100(NR), Metabolic Activation: NONE, Method: PREINCUBATION (ANAEROBIC)) of the same molecule?
A: active; positive

Q: What about the mutagenic call (Test System: AMES SALMONELLA TYPHIMURIUM, Strain/Indicator: TA100(NR), Metabolic Activation: RAT, LIVER, S-9, AROCLOR 1254, Method: PREINCUBATION (AEROBIC)) of the same molecule?
A: active; positive

Q: What about the mutagenic call (Test System: AMES SALMONELLA TYPHIMURIUM, Strain/Indicator: TA100(NR), Metabolic Activation: RAT, LIVER, S-9, AROCLOR 1254, Method: PREINCUBATION (ANAEROBIC)) of the same molecule?
A: active; positive

Q: And the mutagenic call (Test System: AMES SALMONELLA TYPHIMURIUM, Strain/Indicator: TA100(NR), Metabolic Activation: RAT, LIVER, S-9, AROCLOR 1254, Method: STANDARD PLATE)?
A: active; positive

Q: What about the mutagenic call (Test System: AMES SALMONELLA TYPHIMURIUM, Strain/Indicator: TA100, Metabolic Activation: NONE, Method: PREINCUBATION (AEROBIC)) of the same molecule?
A: active; positive

Q: And the mutagenic call (Test System: AMES SALMONELLA TYPHIMURIUM, Strain/Indicator: TA100, Metabolic Activation: NONE, Method: PREINCUBATION (ANAEROBIC))?
A: active; positive

Q: What about the mutagenic call [1] of the same molecule?
A: active; positive

Q: What about the mutagenic call (Test System: AMES SALMONELLA TYPHIMURIUM, Strain/Indicator: TA100, Metabolic Activation: RAT, LIVER, S-9, AROCLOR 1254, Method: PREINCUBATION (AEROBIC)) of the same molecule?
A: active; positive

Q: What about the mutagenic call (Test System: AMES SALMONELLA TYPHIMURIUM, Strain/Indicator: TA100, Metabolic Activation: RAT, LIVER, S-9, AROCLOR 1254, Method: PREINCUBATION (ANAEROBIC)) of the same molecule?
A: active; positive

Q: And the mutagenic call [2]?
A: active; positive

Q: What about the mutagenic call (Test System: AMES SALMONELLA TYPHIMURIUM, Strain/Indicator: UTH8414, Metabolic Activation: NONE, Method: STANDARD PLATE) of the same molecule?
A: active; positive

Q: What about the mutagenic call (Test System: AMES SALMONELLA TYPHIMURIUM, Strain/Indicator: YG1029, Metabolic Activation: NONE, Method: PREINCUBATION (AEROBIC)) of the same molecule?
A: active; positive

Q: For `CCCCOS(=O)(=O)c1ccccc1`, which mutagenic call (End Point: IN VITRO MICRONUCLEUS, Test System: MOUSE LYMPHOMA L5178Y CELLS, Metabolic Activation: NONE) is on record?
A: inactive; negative

Q: And the mutagenic call (End Point: IN VITRO MICRONUCLEUS, Test System: MOUSE LYMPHOMA L5178Y CELLS, Metabolic Activation: RAT, LIVER, S-9)?
A: inactive; negative

Q: What about the mutagenic call (End Point: In vitro micronucleus, Test System: Chinese Hamster Ovary (CHO-WBL) cells, Metabolic Activation: None) of the same molecule?
A: active; positive (p<0.01)

Q: What about the mutagenic call [1] of the same molecule?
A: active; positive

Q: And the mutagenic call (Test System: AMES SALMONELLA TYPHIMURIUM, Strain/Indicator: TA100, Metabolic Activation: RAT, LIVER, S-9, Method: STANDARD PLATE)?
A: active; positive

Q: With `O=[N+]([O-])c1ccccc1S(=O)(=O)O` as the molecule, how does the mutagenic call [3] read?
A: inactive; negative

Q: What about the mutagenic call (Test System: AMES SALMONELLA TYPHIMURIUM, Strain/Indicator: TA98, Metabolic Activation: RAT, LIVER, S-9, KANECHLOR 500, Method: PREINCUBATION) of the same molecule?
A: inactive; negative

Q: And the mutagenic call [4]?
A: inactive; negative

Q: What about the mutagenic call (Test System: AMES SALMONELLA TYPHIMURIUM, Strain/Indicator: TA100, Metabolic Activation: RAT, LIVER, S-9, KANECHLOR 500, Method: PREINCUBATION) of the same molecule?
A: inactive; negative

Q: What does the source list for `N[C@@H](Cc1ccc(N(CCCl)CCCl)cc1)C(=O)O`?
A: mutagenic call (End Point: In vivo chromosomal aberrations, Test System: Bone marrow cells, Species: Mouse, Strain/Sex: C57B1/6 / Female (base p53+/-), Route: Oral (gavage)): active; positive; mutagenic call (End Point: In vivo chromosomal aberrations, Test System: Splenocytes, Species: Mouse, Strain/Sex: C57B1/6 / Female (base p 53+/-), Route: Oral (gavage)): active; positive; mutagenic call (Test System: AMES SALMONELLA TYPHIMURIUM, Strain/Indicator: TA98, Metabolic Activation: NONE, Method: STANDARD PLATE): inactive; negative; mutagenic call (Test System: AMES SALMONELLA TYPHIMURIUM, Strain/Indicator: TA98, Metabolic Activation: RAT, LIVER, S-9, AROCLOR 1254 (30%), Method: PREINCUBATION): inactive; negative; mutagenic call (Test System: AMES SALMONELLA TYPHIMURIUM, Strain/Indicator: TA100, Metabolic Activation: HAMSTER, LIVER, S-9, AROCLOR 1254 (30%), Method: PREINCUBATION): active; positive; mutagenic call [4]: active; positive; mutagenic call [1]: active; positive; mutagenic call (Test System: AMES SALMONELLA TYPHIMURIUM, Strain/Indicator: TA100, Metabolic Activation: RAT, LIVER, S-9, AROCLOR 1254 (30%), Method: PREINCUBATION): active; positive; mutagenic call [2]: active; positive; mutagenic call (Test System: AMES SALMONELLA TYPHIMURIUM, Strain/Indicator: TA1535, Metabolic Activation: NONE, Method: STANDARD PLATE): active; positive; mutagenic call (Test System: AMES SALMONELLA TYPHIMURIUM, Strain/Indicator: TA1535, Metabolic Activation: RAT, LIVER, S-9, AROCLOR 1254, Method: STANDARD PLATE): active; positive; mutagenic call (Test System: AMES SALMONELLA TYPHIMURIUM, Strain/Indicator: TA1537, Metabolic Activation: NONE, Method: STANDARD PLATE): inactive; negative; mutagenic call (Test System: E. COLI, Strain/Indicator: WP2 (HCR), Metabolic Activation: S-9, Method: STANDARD PLATE): inactive; negative

Q: With `CC(C)=CC1C(C(=O)OC(C#N)c2cccc(Oc3ccccc3)c2)C1(C)C` (configuration not stated) as the molecule, how does the mutagenic call (Test System: Ames Salmonella typhimurium, Strain/Indicator: TA98, Metabolic Activation: None, Method: Preincubation) read?
A: inactive; negative

Q: What about the mutagenic call (Test System: Ames Salmonella typhimurium, Strain/Indicator: TA98, Metabolic Activation: Rat, liver, S-9, Method: Preincubation) of the same molecule?
A: inactive; negative

Q: And the mutagenic call (Test System: Ames Salmonella typhimurium, Strain/Indicator: TA100, Metabolic Activation: None, Method: Preincubation)?
A: inactive; negative

Q: And the mutagenic call (Test System: Ames Salmonella typhimurium, Strain/Indicator: TA100, Metabolic Activation: Rat, liver, S-9, Method: Preincubation)?
A: inactive; negative

Q: What about the mutagenic call (Test System: Ames Salmonella typhimurium, Strain/Indicator: TA1535, Metabolic Activation: None, Method: Preincubation) of the same molecule?
A: inactive; negative

Q: What about the mutagenic call (Test System: Ames Salmonella typhimurium, Strain/Indicator: TA1535, Metabolic Activation: Rat, liver, S-9, Method: Preincubation) of the same molecule?
A: inactive; negative

Q: And the mutagenic call (Test System: Ames Salmonella typhimurium, Strain/Indicator: TA1537, Metabolic Activation: None, Method: Preincubation)?
A: inactive; negative

Q: And the mutagenic call (Test System: Ames Salmonella typhimurium, Strain/Indicator: TA1537, Metabolic Activation: Rat, liver, S-9, Method: Preincubation)?
A: inactive; negative

Q: What about the mutagenic call (Test System: Ames Salmonella typhimurium, Strain/Indicator: TA1538, Metabolic Activation: None, Method: Preincubation) of the same molecule?
A: inactive; negative

Q: What about the mutagenic call (Test System: Ames Salmonella typhimurium, Strain/Indicator: TA1538, Metabolic Activation: Rat, liver, S-9, Method: Preincubation) of the same molecule?
A: inactive; negative

Q: And the mutagenic call (Test System: E. coli, Strain/Indicator: WP-2 uvrA, Metabolic Activation: None, Method: Preincubation)?
A: inactive; negative

Q: And the mutagenic call (Test System: E. coli, Strain/Indicator: WP-2 uvrA, Metabolic Activation: Rat, liver, S-9, Method: Preincubation)?
A: inactive; negative

Q: Which mutagenic call [3] does the source give for `CCN(CC)C(=S)SSC[C@H](NC(=O)CC[C@H](N)C(=O)O)C(=O)NCC(=O)O` here?
A: inactive; negative

Q: What about the mutagenic call (Test System: AMES SALMONELLA TYPHIMURIUM, Strain/Indicator: TA98, Metabolic Activation: RAT, LIVER, S-9, AROCLOR 1254, Method: PREINCUBATION) of the same molecule?
A: inactive; negative

Q: And the mutagenic call [4]?
A: inactive; negative

Q: What about the mutagenic call (Test System: AMES SALMONELLA TYPHIMURIUM, Strain/Indicator: TA100, Metabolic Activation: RAT, LIVER, S-9, AROCLOR 1254, Method: PREINCUBATION) of the same molecule?
A: inactive; negative

Q: Which mutagenic call [1] does the source give for `NN(Cc1ccccc1)Cc1ccccc1` here?
A: inactive; negative

Q: What about the mutagenic call [2] of the same molecule?
A: inactive; negative

Q: What about the mutagenic call (Test System: AMES SALMONELLA TYPHIMURIUM, Strain/Indicator: TA102, Metabolic Activation: NONE, Method: STANDARD PLATE) of the same molecule?
A: inactive; negative

Q: And the mutagenic call (Test System: AMES SALMONELLA TYPHIMURIUM, Strain/Indicator: TA102, Metabolic Activation: RAT, LIVER, S-9, AROCLOR 1254, Method: STANDARD PLATE)?
A: inactive; negative

Q: For `COc1nncc2ncccc12`, which mutagenic call [3] is on record?
A: inactive; negative

Q: What about the mutagenic call (Test System: AMES SALMONELLA TYPHIMURIUM, Strain/Indicator: TA98, Metabolic Activation: RAT, LIVER, S-9, PCB, Method: PREINCUBATION) of the same molecule?
A: inactive; negative

Q: What about the mutagenic call [4] of the same molecule?
A: inactive; negative

Q: What about the mutagenic call (Test System: AMES SALMONELLA TYPHIMURIUM, Strain/Indicator: TA100, Metabolic Activation: RAT, LIVER, S-9, PCB, Method: PREINCUBATION) of the same molecule?
A: inactive; negative

Q: Which mutagenic call [3] does the source give for `Cc1cc2ccccc2cc1[N+](=O)[O-]` here?
A: inactive; negative
